Experimental data: US20090036474A1, “Quinazoline derivatives for use against cancer” (priority 2004, published 2009)

Target: T1, phospho-Tyr751 PDGFRβ (Homo sapiens, UniProt P09619)
T1 construct: phosphorylation of PDGFR expressed on MG63 osteosarcoma cells; endogenous in cells; host or cells: MG63 osteosarcoma cells
Experiment: In vitro phospho-Tyr751 PDGFRβ ELISA assay in MG63 osteosarcoma cells, Test (b)
Assay type: cell-based
Settings: MG63 cells stimulated with PDGFBB, read-out: IC50 versus phospho-Tyr751 PDGFRβ
Method: This assay uses a conventional ELISA method to determine the ability of test compounds to inhibit phosphorylation of tyrosine in PDGFRβ.
An MG63 osteosarcoma cell line [American Type Culture Collection (ATCC) CCL 1427] was routinely maintained at 37° C. with 7.5% CO2 in Dulbecco's modified Eagle's growth medium (DMEM; Sigma-Aldrich; Catalogue No. D6546) containing 10% foetal calf serum (FCS; Sigma-Aldrich; Catalogue No. F7524) and 2 mM L-glutamine (Invitrogen Ltd., Paisley, UK; Catalogue No. 25030-024).
For the assay, the cells were detached from the culture flask using a trypsin/ethylenediaminetetraacetic acid (EDTA) mixture (Invitrogen Ltd.; Catalogue No. 15400-054) and resuspended in test media comprising DMEM without phenol red (Sigma-1-Aldrich; Catalogue No. D5921) containing 1% charcoal-stripped-foetal calf serum (FCS) (Sigma-Aldrich; Catalogue No. F7524, stripped by incubation with dextran-coated activated charcoal at 55° C. for 30 minutes with continuous stirring followed by removal of the charcoal by centrifugation and filter sterilisation) and 2 mM L-glutamine (Invitrogen Ltd., Catalogue No. 25030-024) to give 6×10^4 cells per ml. […]

T1 sequence (P09619 33-1106): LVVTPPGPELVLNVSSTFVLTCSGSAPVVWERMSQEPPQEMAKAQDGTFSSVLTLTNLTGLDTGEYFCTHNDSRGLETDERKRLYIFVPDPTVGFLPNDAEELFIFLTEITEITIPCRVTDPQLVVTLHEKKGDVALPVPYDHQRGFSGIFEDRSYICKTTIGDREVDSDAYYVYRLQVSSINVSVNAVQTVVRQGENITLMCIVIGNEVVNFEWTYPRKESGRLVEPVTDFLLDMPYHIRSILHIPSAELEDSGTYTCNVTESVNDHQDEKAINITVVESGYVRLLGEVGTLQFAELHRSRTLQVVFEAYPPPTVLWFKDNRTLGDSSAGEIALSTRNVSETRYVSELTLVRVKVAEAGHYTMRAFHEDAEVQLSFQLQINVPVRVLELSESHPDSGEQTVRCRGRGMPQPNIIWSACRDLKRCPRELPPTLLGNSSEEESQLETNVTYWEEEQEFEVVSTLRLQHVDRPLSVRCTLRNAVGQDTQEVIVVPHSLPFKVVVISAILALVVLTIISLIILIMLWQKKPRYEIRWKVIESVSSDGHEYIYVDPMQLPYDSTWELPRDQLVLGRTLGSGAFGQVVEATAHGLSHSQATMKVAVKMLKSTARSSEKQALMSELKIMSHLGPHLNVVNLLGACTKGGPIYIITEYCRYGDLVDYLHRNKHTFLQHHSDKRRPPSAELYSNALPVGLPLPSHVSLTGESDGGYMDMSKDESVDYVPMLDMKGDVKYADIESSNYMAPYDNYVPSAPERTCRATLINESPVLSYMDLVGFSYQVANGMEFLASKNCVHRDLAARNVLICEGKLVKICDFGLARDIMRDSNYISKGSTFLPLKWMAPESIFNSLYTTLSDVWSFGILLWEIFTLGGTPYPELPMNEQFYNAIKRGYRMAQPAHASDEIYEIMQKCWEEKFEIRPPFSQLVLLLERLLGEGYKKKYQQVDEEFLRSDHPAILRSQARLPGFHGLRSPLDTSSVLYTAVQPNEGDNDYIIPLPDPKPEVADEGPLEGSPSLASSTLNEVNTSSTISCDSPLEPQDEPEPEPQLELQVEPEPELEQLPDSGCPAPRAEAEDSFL

IC50: ~3 nM
Compound: COc1cc2ncnc(Oc3cnn(CC(=O)Nc4cccc5c4OCO5)c3)c2cc1OC [Example 2, N-(2,3-methylenedioxyphenyl)-2-[4-(6,7-dimethoxyquinazolin-4-yloxy)pyrazol-1-yl]acetamide]
